Results from ChEMBL document CHEMBL3046819, “Synthesis and antimicrobial activity of new pyridine derivatives-I” (2011).

What was measured:
Type in all cases: functional
Conditions in all cases: read-out: IZ
Candida albicans [1] = experiment: Antifungal activity against Candida albicans ATCC 10231 at 200 ug/ml by cup-plate method
Candida albicans [2] = experiment: Antifungal activity against Candida albicans ATCC 10231 at 100 ug/ml by cup-plate method
Bacillus subtilis [3] = experiment: Antibacterial activity against Bacillus subtilis ATCC 6633 at 200 ug/ml by cup-plate method
Bacillus subtilis [4] = experiment: Antibacterial activity against Bacillus subtilis ATCC 6633 at 100 ug/ml by cup-plate method
Staphylococcus aureus [5] = experiment: Antibacterial activity against Staphylococcus aureus ATCC 9144 at 200 ug/ml by cup-plate method
Staphylococcus aureus [6] = experiment: Antibacterial activity against Staphylococcus aureus ATCC 9144 at 100 ug/ml by cup-plate method
Escherichia coli [7] = experiment: Antibacterial activity against Escherichia coli ATCC 25922 at 200 ug/ml by cup-plate method
Escherichia coli [8] = experiment: Antibacterial activity against Escherichia coli ATCC 25922 at 100 ug/ml by cup-plate method
Pseudomonas aeruginosa [9] = experiment: Antibacterial activity against Pseudomonas aeruginosa ATCC 9027 at 200 ug/ml by cup-plate method
Pseudomonas aeruginosa [10] = experiment: Antibacterial activity against Pseudomonas aeruginosa ATCC 9027 at 100 ug/ml by cup-plate method

Compound | zone of inhibition at 200 µg/mL (Candida albicans [1]) | zone of inhibition at 100 µg/mL (Candida albicans [2]) | zone of inhibition at 200 µg/mL (Bacillus subtilis [3]) | zone of inhibition at 100 µg/mL (Bacillus subtilis [4]) | zone of inhibition at 200 µg/mL (Staphylococcus aureus [5]) | zone of inhibition at 100 µg/mL (Staphylococcus aureus [6]) | zone of inhibition at 200 µg/mL (Escherichia coli [7]) | zone of inhibition at 100 µg/mL (Escherichia coli [8]) | zone of inhibition at 200 µg/mL (Pseudomonas aeruginosa [9]) | zone of inhibition at 100 µg/mL (Pseudomonas aeruginosa [10])
O=C(c1cccnc1Nc1nc2c([N+](=O)[O-])cccc2s1)N1CCNC(Cl)C1Cl (stereo not given) | 4 mm | 2 mm | 10 mm | 5 mm | 10 mm | 8 mm | 10 mm | 9 mm | 9 mm | 8 mm
Cc1ccc2sc(Nc3ncccc3C(=O)N3CCN(CCO)CC3)nc2c1 | 2 mm | 1 mm | 8 mm | 8 mm | 10 mm | 8 mm | 10 mm | 6 mm | 6 mm | 5 mm
Cc1ccc2nc(Nc3ncccc3C(=O)N3CCN(CCO)CC3)sc2c1 | 5 mm | 2 mm | 0 mm | 0 mm | 3 mm | 0 mm | 6 mm | 0 mm | 0 mm | 0 mm
COc1cccc2sc(Nc3ncccc3C(=O)N3CCN(CCO)CC3)nc12 | 4 mm | 4 mm | 10 mm | 6 mm | 8 mm | 6 mm | 3 mm | 3 mm | 9 mm | 7 mm
COc1ccc2nc(Nc3ncccc3C(=O)N3CCN(CCO)CC3)sc2c1 | 5 mm | 0 mm | 4 mm | 0 mm | 9 mm | 8 mm | 8 mm | 8 mm | 5 mm | 4 mm
O=C(c1cccnc1Nc1nc2ccccc2s1)N1CCNC(Cl)C1Cl (stereo not given) | 5 mm | 3 mm | 7 mm | 6 mm | 7 mm | 5 mm | 8 mm | 7 mm | 5 mm | 4 mm
O=C(c1cccnc1Nc1nc2cc([N+](=O)[O-])ccc2s1)N1CCNC(Cl)C1Cl (stereo not given) | 4 mm | 1 mm | 7 mm | 8 mm | 9 mm | 6 mm | 5 mm | 4 mm | 6 mm | 5 mm
O=C(c1cccnc1Nc1nc2ccc([N+](=O)[O-])cc2s1)N1CCNC(Cl)C1Cl (stereo not given) | 3 mm | 0 mm | 7 mm | 7 mm | 8 mm | 8 mm | 6 mm | 6 mm | 8 mm | 6 mm
O=C(c1cccnc1Nc1nc2c(Cl)cccc2s1)N1CCNC(Cl)C1Cl (stereo not given) | 6 mm | 3 mm | 6 mm | 3 mm | 4 mm | 3 mm | 5 mm | 4 mm | 3 mm | 3 mm
O=C(c1cccnc1Nc1nc2cc(Cl)ccc2s1)N1CCNC(Cl)C1Cl (stereo not given) | 2 mm | 1 mm | 5 mm | 5 mm | 0 mm | 0 mm | 3 mm | 2 mm | 2 mm | 0 mm
O=C(c1cccnc1Nc1nc2ccc(Cl)cc2s1)N1CCNC(Cl)C1Cl (stereo not given) | 1 mm | 0 mm | 6 mm | 5 mm | 10 mm | 7 mm | 9 mm | 7 mm | 8 mm | 8 mm
Cc1cccc2sc(Nc3ncccc3C(=O)N3CCNC(Cl)C3Cl)nc12 (stereo not given) | 0 mm | 0 mm | 4 mm | 4 mm | 6 mm | 4 mm | 10 mm | 8 mm | 7 mm | 6 mm
Cc1ccc2sc(Nc3ncccc3C(=O)N3CCNC(Cl)C3Cl)nc2c1 (stereo not given) | 3 mm | 2 mm | 7 mm | 7 mm | 10 mm | 8 mm | 7 mm | 5 mm | 8 mm | 6 mm
Cc1ccc2nc(Nc3ncccc3C(=O)N3CCNC(Cl)C3Cl)sc2c1 (stereo not given) | 5 mm | 2 mm | 0 mm | 0 mm | 4 mm | 3 mm | 3 mm | 3 mm | 0 mm | 0 mm
COc1cccc2sc(Nc3ncccc3C(=O)N3CCNC(Cl)C3Cl)nc12 (stereo not given) | 4 mm | 3 mm | 9 mm | 8 mm | 6 mm | 6 mm | 4 mm | 0 mm | 8 mm | 7 mm
COc1ccc2nc(Nc3ncccc3C(=O)N3CCNC(Cl)C3Cl)sc2c1 (stereo not given) | 6 mm | 4 mm | 2 mm | – | 6 mm | 5 mm | 9 mm | 8 mm | 7 mm | 4 mm
O=C(c1cccnc1Nc1nc2ccc(Cl)cc2s1)N1CCN(CCO)CC1 | 1 mm | 0 mm | 9 mm | 7 mm | 9 mm | 8 mm | 10 mm | 6 mm | 10 mm | 7 mm
Cc1cccc2sc(Nc3ncccc3C(=O)N3CCN(CCO)CC3)nc12 | 0 mm | 0 mm | 10 mm | 7 mm | 5 mm | 4 mm | 7 mm | 3 mm | 7 mm | 6 mm
CC1(C)S[C@@H]2[C@H](NC(=O)[C@H](N)c3ccc(O)cc3)C(=O)N2[C@H]1C(=O)O [AMOXICILLIN] | – | – | 29 mm | 16 mm | 24 mm | 13 mm | 28 mm | 16 mm | 27 mm | 15 mm
C[C@@H]1[C@H](O)[C@@H](C)/C=C/C=C/C=C/C=C/C=C/C=C/C=C/[C@H](O[C@@H]2O[C@H](C)[C@@H](O)[C@H](N)[C@@H]2O)C[C@@H]2O[C@](O)(C[C@@H](O)C[C@@H](O)[C@H](O)CC[C@@H](O)C[C@@H](O)CC(=O)O[C@H]1C)C[C@H](O)[C@H]2C(=O)O [AMPHOTERICIN B] | 18 mm | 8 mm | – | – | – | – | – | – | – | –
CC1(C)S[C@@H]2[C@H](NC(=O)[C@H](N)c3ccccc3)C(=O)N2[C@H]1C(=O)O [AMPICILLIN] | – | – | 30 mm | 17 mm | 28 mm | 15 mm | 30 mm | 18 mm | 31 mm | 18 mm
CC1(C)S[C@@H]2[C@H](NC(=O)Cc3ccccc3)C(=O)N2[C@H]1C(=O)O [PENICILLIN G] | – | – | 25 mm | 14 mm | 21 mm | 12 mm | 25 mm | 14 mm | 22 mm | 13 mm
